The values below come from paper PMC12667295, “A surrogate barrier model for high-throughput blood-brain barrier permeability prediction: integrating LLC-PK1-MOCK/MDR1 Cells and lysosomal trapping correction” (Drug Delivery, 2025).

Read-outs that look alike come from different tables or passages of the source.

On the set-up of data set [1]: method as in not given. Conditions: stated without method; ref not given; cited from earlier work.
Data set [2] in a line: Bidirectional transport across LLC-PK1 MOCK monolayer (Transwell).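 For all read-outs here: compound quantified by LC-MS/MS in donor and receiver wells, efflux ratio as B-A over A-B Papp, recovery relative to initial donor amount.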 Conditions: pig; for recovery at 2 h, 2 µM: LLC-PK1 MOCK cell monolayer (Transwell), pH 7.4, Recovery after correction of intracellular accumulation data, cell lysate included, mean±SD, n=3.
Experimental: (§1) Cells were passaged at 80−90% confluence (every 2−3 days) using trypsin-EDTA solution. […] The culture medium was replaced every other day, including 200 µL culture medium in the apical and 850 µL cell culture medium in the basolateral side. LLC-PK1 MOCK cells were used at passages of 3−30. LLC-PK1-MDR1 cells were cultured and passaged in the same manner as LLC-PK1 cells except at the density of 1 × 10^4 cells per well. LLC-PK1-MDR1 cells were used at passages of 3−25. For LLC-PK1 MOCK cells and LLC-PK1-MDR1 cells, the experiments were performed on the 4th and 7th day after seeding.
(§2) Samples were collected from the donor well at the start of the incubation (50 µL) as C0, and from the donor and receiver wells at the end of the incubation (50 µL). All samples were stored at - 40 °C for LC-MS/MS analysis.
(§3) Bidirectional transport experiments. […] The transwell experiments were conducted following above-mentioned procedure. […] When the recovery rate of the tested drug is below 80%, the possibility of intracellular accumulation should be considered. The polycarbonate (PC) membrane where cells are grown should be carefully peeled off from the cell culture medium and placed in 100 µL of HBSS buffer solution. […] The process was carried out on ice to prevent heat-induced degradation, applying a power in the range of 300 W for a total duration of 20 minutes. Thereafter, a quantitative analysis of the intracellular drug was conducted, and the drug recovery rate was recalculated based on this analysis.
(§4) The apparent permeability coefficient (Papp, cm/s) was calculated for each transport direction, A-B and B-A, using the following equation: Papp=dQ/dt×1/A×C0 where dQ/dt is the permeation rate (µmol/s), A is the surface area of the insert (0.33 cm^2, Corning), and C0 is the initial donor concentration (µM).
(§5) The efflux ratio (ER) is calculated as the ratio of Papp (B-A)/Papp (A-B). Recovery=TRcumrf+Cdf×VD/Cdi×VD×100% Where TRcumrf is the cumulative transported mass in the receiver chamber at the end of the incubation (nmol), Cdf is the concentration of the drug in the donor chamber at the end of the incubation (μM), VD is the volume of the donor chamber (mL), and Cdi is the initial concentration of the drug in the donor chamber (μM).
(§6) The method of the bidirectional transport experiment was the same as before.
The conditions of data set [3]: cited from earlier work.
Data set [4] is described as follows: LLC-PK1 MOCK/MDR1 monolayer model, results stated for both cell lines jointly. Conditions: pig, LLC-PK1 MOCK and LLC-PK1-MDR1 cell monolayers (Transwell). How it is done: Monitoring of TEER value and LY permeability. After the LLC-PK1 MOCK/MDR1 cells attach to the Transwell insert, TEER (Transepithelial Electrical Resistance) values were continuously recorded using a cell resistance meter (Beijing JINGONGHONGTAI Technology Co., Ltd). These TEER values represent the mean from six individual inserts (n = 6) measured per group. The TEER measurement and transport experiment were conducted at 37 °C, using a heating plate to maintain the required temperature. The transmembrane resistance was calculated using the formula TEER = (Rtotal-Rblank) × Aarea, where Rblank represents the TEER of the blank chamber.
The permeability of the Lucifer Yellow CH Dipotassium Salt (LY, 100 μM) across the monolayers was measured in apical-to-basolateral direction to monitor the integrity of the cell monolayer.
Bidirectional transport experiments. […] The transwell experiments were conducted following above-mentioned procedure.

Data set [5] deals with P-gp (human MDR1). Description: Bidirectional transport across LLC-PK1-MDR1 monolayer stably expressing human MDR1 (P-gp) (Transwell).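 Note: 2 h incubation at 37 °C, receiver HBSS with 10 mM Hepes plus 1% BSA, LC-MS/MS of donor and receiver, recovery as receiver plus donor amount over initial donor amount.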 Conditions: pig.
Experimental: (§7) The overexpression and functional activity of P-glycoprotein (P-gp) in the LLC-PK1-MDR1 cells were rigorously validated through multiple methods.
as §1
(§8) Monitoring permeability of positive control drugs. […] Samples were collected from the donor well at the start of the incubation (50 µL) as C0, and from the donor and receiver wells at the end of the incubation (50 µL). All samples were stored at - 40 °C for LC-MS/MS analysis.
as §3, §4, §5, §6
The nature of a further data set: in vivo. Conditions: rat; for Kp: SD, iv, 1 mg/kg. The source says: In vivo unbound brain distribution data (Kp,uu,Brain) for 16 drugs and total brain distribution data (Kp,Brain) for 16 drugs was acquired from literature. […] For each tested compound, fifteen rats were randomly divided into five groups of three rats each. […] The time of execution of the rats by CO2 inhalation after administration was optimized according to the in vivo elimination rate to achieve five concentrations of different time points. After the rats were euthanized, cardiac puncture was performed immediately to remove as much whole blood as possible (~7 ml) from the systemic circulation (Quantitatively aliquot 0.2 ml of whole blood for the determination of drug concentration in plasma). Afterwards, the brain tissue was collected immediately and rinsed repeatedly with ice-cold saline 3 times. Then, the surface saline was blotted dry with clean filter paper to remove as much residual drug in the blood vessels as possible. Plasma samples were prepared by centrifugation of the blood samples at 2,500 g for 10 minutes at 4 °C. All brain samples were homogenized by adding 4-fold volume water. All samples were stored at -40 °C before LC-MS/MS analysis. […] The brain tissue partition coefficient (Kp, brain) and brain-to-plasma unbound drug partition ratio (Kp,uu, brain) are calculated according to the following formulas, respectively: Kp,brain=AUC(0−∞,brain)/AUC(0−∞,plasma)Kp,uu,brain=Kp,brain×(fu,tissue/fu,plasma)
Free brain-to-plasma distribution coefficients (Kp,uu,brain) of 41 drugs. Brain distribution coefficients (Kp,uu,brain) were calculated for 41 drugs. […] Plasma and brain concentration-time profiles were generated, and AUC(0-t) values for both matrices were calculated using WinNolin 8.1. Kp,brain was derived as the ratio of brain-to-plasma AUC(0-t).
Kp,uu,brain values were computed by normalizing Kp,brain to unbound fractions (fu,plasma and fu,brain).

For data set [6] the following is noted: cited from earlier work. This is another data set of the same source.
The nature of data set [7]: in vitro. Conditions: pig, pH 7.4.
Experimental: as §1, §2, §3, §4, §5, §6
Data set [8] is described as follows: in vitro. How it is done: Stocks (10 mM) of test compounds were diluted to 5 μM with plasma or tissue homogenate and dialyzed at 37 °C for 6 hours in a shaking incubator. After incubation aliquots of both plasma or tissue homogenate and buffer from the device were taken and added to equal volumes of blank buffer and plasma or tissue homogenate respectively. Samples were then diluted in acetonitrile containing an internal standard prior to centrifugation and analysis of the supernatants by LC-MS/MS. The fu, plasma was calculated using Equation 1:(1) fu,plasma=Concbuffer chamber/Concsample chamber
Rat fraction unbound in brain (fu, brain) was determined as the ratio of concentration in buffer to that in brain.
Unbound fractions of test drugs in plasma (fu,plasma) and brain tissue (fu,brain). For compounds with existing rat plasma or brain protein-binding data from literature or internal studies, values were directly adopted.

Data set [9] deals with P-gp (human MDR1). As to the kind of experiment: in vitro. Conditions: pig, LLC-PK1, pH 7.4.
Experimental: as §7, §1, §8, §3, §4, §5, §6
For the next data set, the system named is LLC-PK1 MOCK cells. As to the kind of experiment: Bidirectional transport across LLC-PK1 MOCK monolayer (Transwell).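 Note: compound quantified by LC-MS/MS in donor and receiver wells, efflux ratio as B-A over A-B Papp, recovery relative to initial donor amount.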 Conditions: LLC-PK1 MOCK, 2 µM, 2 h, mean ± s, n = 3; BLQ = below 2 nM.
Setting [10] is: LLC-PK1, pH 7.4, ER, LLC-PK1-MDR1, Papp (B-A)/Papp (A-B).
The mark [11] stands for this setting: LLC-PK1, pH 7.4, Papp A-B, LLC-PK1-MDR1, 2 µM, 2 h, mean ± s, n = 3.
Where [12] appears, read: LLC-PK1 MOCK cell monolayer (Transwell).

Experimental for LLC-PK1 MOCK cells: as §1, §2, §3, §4, §5, §6

As for `CN(C)CCC=C1c2ccccc2CCc2ccccc21` [Amitriptyline], the pKa in [1] is more than 7. The apparent permeability from basolateral to apical (Papp B→A) at 2 h, 2 µM in [2] (LLC-PK1, pH 7.4) stood at 13.8 ± 1.58 ×10⁻⁶ cm/s; in the data set with P-gp (human MDR1) [5] (LLC-PK1, pH 7.4) it was 12.7 ± 1.19 ×10⁻⁶ cm/s. Besides, the efflux ratio at 2 h, 2 µM in [2] (LLC-PK1, pH 7.4, ER, LLC-PK1 MOCK, Papp (B-A)/Papp (A-B)) came out at 1.38; with P-gp (human MDR1) [5] (setting [10]), 1.85. In addition, the apparent permeability from apical to basolateral (Papp A→B) at 2 h, 2 µM was found to be 9.98 ± 0.69 ×10⁻⁶ cm/s in data set [2] (LLC-PK1, pH 7.4, Papp A-B, LLC-PK1 MOCK, 2 µM, 2 h, mean ± s, n = 3, BLQ = below 2 nM) and 6.84 ± 0.72 ×10⁻⁶ cm/s in the data set with P-gp (human MDR1) [5] (setting [11]). Also, the recovery at 2 h, 2 µM in [2] (A-B, LLC-PK1 MOCK) turned out to be 80.01 ± 0.69%; in data set [2] (B-A, LLC-PK1 MOCK), 90 ± 9.68%. For the same molecule, the “Kp, Brain” value in [3] (ref Fridén [2009]) was 20.15. Also, in data set [3] (ref Fridén [2009]), the “Kp,uu,Brian” value is listed as 0.73. The recovery at 2 µM is more than 80% in data set [4] (pH 7.4, Recovery after cell lysate extraction, intracellular drug included); less than 80% in data set [4] (pH 7.4, Recovery, bidirectional transport, uncorrected); 80 to 120% in data set [4] (pH 7.4, with bafilomycin A1 1 µM (inhibitor of lysosomal function), Recovery, with 1 µM Bafilomycin A1, bidirectional transport).

On to `COc1cc([C@@H]2c3cc4c(cc3[C@@H](O[C@@H]3O[C@@H]5CO[C@@H](C)O[C@H]5[C@H](O)[C@H]3O)[C@H]3COC(=O)[C@H]23)OCO4)cc(OC)c1O` [Etoposide], for which the Kp in “in vivo” (Kp, Brain) turned out to be 0.025; in “in vivo” (Kp,uu,Brian) it was 0.008. Further, the “Protein binding in plasma” value in data set [6] (footnote b, species not stated, ref https://go.drugbank.com) was 97.0^b %. In addition, the recovery at 2 h, 2 µM came out at 106 ± 0.11% in “in vitro [7]” (setting [12]) and 100 ± 2.47% in the data set with P-gp (human MDR1) [9]. The molecule also gave a fraction unbound at 6 h, 5 µM in the data set “in vitro [8]” (rat, brain homogenate) of less than 0.01. The Papp B→A at 2 h, 2 µM was found to be 0.16 ± 0.02 ×10⁻⁶ cm/s in data set [2] (LLC-PK1, pH 7.4) and 3.68 ± 0.22 ×10⁻⁶ cm/s in the data set with P-gp (human MDR1) [5] (LLC-PK1, pH 7.4). For the same molecule, in the data set with P-gp (human MDR1) [5] (LLC-PK1, pH 7.4), the Papp A→B at 2 h, 2 µM was determined as 0.75 ± 0.1 ×10⁻⁶ cm/s.

Take `CN(Cc1cnc2nc(N)nc(N)c2n1)c1ccc(C(=O)N[C@@H](CCC(=O)O)C(=O)O)cc1` [Methotrexate]: in “in vitro [7]” (setting [12]), the recovery at 2 h, 2 µM stood at 85.8 ± 4.58%. For the same molecule, in the data set with LLC-PK1 MOCK cells, the “Papp A-B” value was “BLQ” and the “Papp B-A” value is recorded as “BLQ”. Also, in [3] (ref Fridén [2009]), the “Kp, Brain” value was 0.004 and the “Kp,uu,Brian” value is reported as 0.006. In addition, the Papp B→A at 2 h, 2 µM in the data set with P-gp (human MDR1) [5] (LLC-PK1, pH 7.4) was 0.45 ± 0.05 ×10⁻⁶ cm/s. In the data set on P-gp (human MDR1) [5] (setting [10]), the efflux ratio at 2 h, 2 µM was 0.81. This molecule also showed a Papp A→B at 2 h, 2 µM in the data set on P-gp (human MDR1) [5] (setting [11]) of 0.55 ± 0.1 ×10⁻⁶ cm/s. This molecule returned a recovery at 2 h, 2 µM in the data set on P-gp (human MDR1) [9] of 83.3 ± 5.67%.

Consider `Cc1ncc2n1-c1ccc(Cl)cc1C(c1ccccc1F)=NC2` [Midazolam], for which, in the data set “in vivo” (in vivo), the Kp uu was 1.42. For the same molecule, the “Protein binding in plasma” value in data set [6] (footnote a, ref Internal data) is 97.0^a %. In the data set “in vitro [7]”, this molecule yielded a recovery at 2 h, 2 µM of 99.6 ± 1.73%. Also, the fraction unbound at 6 h, 5 µM in “in vitro [8]” was 0.022. Moreover, in data set [2] (LLC-PK1, pH 7.4), the Papp A→B at 2 h, 2 µM is 24.7 ± 0.41 ×10⁻⁶ cm/s; the Papp B→A at 2 h, 2 µM amounted to 31.6 ± 5.1 ×10⁻⁶ cm/s; the efflux ratio at 2 h, 2 µM is 1.32. Moreover, the “Kp, Brain” value in [3] (footnote a, ref Internal data) is given as 2.44^a. In the data set with P-gp (human MDR1) [5] (LLC-PK1, pH 7.4), the apparent permeability from apical to basolateral (Papp A→B) at 2 h, 2 µM worked out at 29.5 ± 1 ×10⁻⁶ cm/s; the Papp B→A at 2 h, 2 µM is 27 ± 2.23 ×10⁻⁶ cm/s; the efflux ratio at 2 h, 2 µM is 0.91. This molecule gave a recovery at 2 h, 2 µM in the data set with P-gp (human MDR1) [9] of 100 ± 3%.

The term pKa denotes the pH at which an ionisable group is half protonated. In general, Papp B→A refers to the apparent permeability from the basolateral to the apical side of a cell layer. As a reminder, the efflux ratio is the permeability from basolateral to apical divided by that in the opposite direction, in the common usage. What is called Papp A→B is the apparent permeability from the apical to the basolateral side of a cell layer. Higher therefore signals ready permeation. For orientation: fraction unbound means the share of the substance not bound to proteins or other matrix.
